Measured values as given in patent publication US9340590B2 (priority 2011, dated 2016).
Positions of bridges follow the written chain, without caps; N, C: chain ends. Non-standard residues stand in square brackets, D forms with d. Residues, ends and D or L forms follow the SMILES beside them. Pra = C#CC[C@H](N)C(=O)O

Experiments:
Test in all cases: cell-based
hNav1.3 = hNav1.3 (Homo sapiens, UniProt Q9NY46); details: IonWorks Quattro, use-dependent block, hNav1.3; read-out: IWQ Use Nav1.3
hNav1.5 = hNav1.5 (Homo sapiens, UniProt Q14524); details: IonWorks Quattro, use-dependent block, hNav1.5; read-out: IWQ Use Nav1.5
hNav1.7 = hNav1.7 (Homo sapiens, UniProt Q15858); format: cell-based; details: IonWorks Quattro, use-dependent block, hNav1.7; read-out: IWQ Use Nav1.7

Chain of hNav1.3 (Q9NY46 whole entry, looked up): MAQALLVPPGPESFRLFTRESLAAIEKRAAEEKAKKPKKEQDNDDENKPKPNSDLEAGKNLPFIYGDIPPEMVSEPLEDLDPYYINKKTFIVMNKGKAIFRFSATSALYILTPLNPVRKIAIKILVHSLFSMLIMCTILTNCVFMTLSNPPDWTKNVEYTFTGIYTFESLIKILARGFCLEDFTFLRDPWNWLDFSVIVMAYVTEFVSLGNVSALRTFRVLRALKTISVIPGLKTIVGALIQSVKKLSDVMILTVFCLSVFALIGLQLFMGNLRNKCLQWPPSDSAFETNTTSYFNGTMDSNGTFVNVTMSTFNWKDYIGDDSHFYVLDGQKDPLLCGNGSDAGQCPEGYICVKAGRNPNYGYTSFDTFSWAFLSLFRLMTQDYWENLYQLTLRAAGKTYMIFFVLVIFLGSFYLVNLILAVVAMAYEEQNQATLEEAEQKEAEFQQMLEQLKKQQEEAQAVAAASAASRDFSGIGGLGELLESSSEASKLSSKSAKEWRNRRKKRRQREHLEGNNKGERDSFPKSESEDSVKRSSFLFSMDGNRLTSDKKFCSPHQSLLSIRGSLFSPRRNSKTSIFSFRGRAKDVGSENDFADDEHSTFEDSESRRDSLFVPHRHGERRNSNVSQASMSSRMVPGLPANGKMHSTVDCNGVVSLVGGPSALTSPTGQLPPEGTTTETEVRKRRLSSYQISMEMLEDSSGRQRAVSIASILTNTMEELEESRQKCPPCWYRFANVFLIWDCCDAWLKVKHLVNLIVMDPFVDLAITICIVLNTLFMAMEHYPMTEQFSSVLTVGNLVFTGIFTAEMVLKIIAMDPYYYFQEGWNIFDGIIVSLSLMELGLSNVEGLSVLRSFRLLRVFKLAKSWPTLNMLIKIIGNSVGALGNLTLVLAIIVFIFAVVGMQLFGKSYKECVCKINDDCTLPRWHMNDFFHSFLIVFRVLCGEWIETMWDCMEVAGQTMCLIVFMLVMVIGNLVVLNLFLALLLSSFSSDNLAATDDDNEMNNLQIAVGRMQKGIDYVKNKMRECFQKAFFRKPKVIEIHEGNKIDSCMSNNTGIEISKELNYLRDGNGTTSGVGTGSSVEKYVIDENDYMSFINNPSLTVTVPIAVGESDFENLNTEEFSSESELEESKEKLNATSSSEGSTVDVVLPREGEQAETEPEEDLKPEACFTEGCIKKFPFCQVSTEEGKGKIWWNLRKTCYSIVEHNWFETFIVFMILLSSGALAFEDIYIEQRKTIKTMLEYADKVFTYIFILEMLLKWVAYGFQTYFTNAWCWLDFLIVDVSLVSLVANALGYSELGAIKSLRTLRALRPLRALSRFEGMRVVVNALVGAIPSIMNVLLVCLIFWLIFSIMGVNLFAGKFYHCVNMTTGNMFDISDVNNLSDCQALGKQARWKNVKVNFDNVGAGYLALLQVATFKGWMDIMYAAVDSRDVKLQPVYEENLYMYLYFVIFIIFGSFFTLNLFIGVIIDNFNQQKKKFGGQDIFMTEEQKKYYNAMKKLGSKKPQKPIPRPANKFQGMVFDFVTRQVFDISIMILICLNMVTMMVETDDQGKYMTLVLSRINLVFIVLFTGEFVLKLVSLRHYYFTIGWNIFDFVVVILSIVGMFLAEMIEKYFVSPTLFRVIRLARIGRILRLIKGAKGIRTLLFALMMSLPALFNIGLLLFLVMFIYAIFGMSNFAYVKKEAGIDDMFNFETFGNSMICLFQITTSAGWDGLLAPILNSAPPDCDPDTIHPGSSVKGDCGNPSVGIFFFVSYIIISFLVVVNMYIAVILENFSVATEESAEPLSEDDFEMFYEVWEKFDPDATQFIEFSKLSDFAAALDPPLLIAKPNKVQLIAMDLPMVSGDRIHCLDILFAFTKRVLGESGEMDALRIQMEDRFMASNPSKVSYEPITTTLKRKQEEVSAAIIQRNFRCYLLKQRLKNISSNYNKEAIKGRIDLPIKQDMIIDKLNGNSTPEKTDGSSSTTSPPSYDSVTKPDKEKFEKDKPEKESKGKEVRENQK
Chain of hNav1.5 (Q14524 whole entry, looked up): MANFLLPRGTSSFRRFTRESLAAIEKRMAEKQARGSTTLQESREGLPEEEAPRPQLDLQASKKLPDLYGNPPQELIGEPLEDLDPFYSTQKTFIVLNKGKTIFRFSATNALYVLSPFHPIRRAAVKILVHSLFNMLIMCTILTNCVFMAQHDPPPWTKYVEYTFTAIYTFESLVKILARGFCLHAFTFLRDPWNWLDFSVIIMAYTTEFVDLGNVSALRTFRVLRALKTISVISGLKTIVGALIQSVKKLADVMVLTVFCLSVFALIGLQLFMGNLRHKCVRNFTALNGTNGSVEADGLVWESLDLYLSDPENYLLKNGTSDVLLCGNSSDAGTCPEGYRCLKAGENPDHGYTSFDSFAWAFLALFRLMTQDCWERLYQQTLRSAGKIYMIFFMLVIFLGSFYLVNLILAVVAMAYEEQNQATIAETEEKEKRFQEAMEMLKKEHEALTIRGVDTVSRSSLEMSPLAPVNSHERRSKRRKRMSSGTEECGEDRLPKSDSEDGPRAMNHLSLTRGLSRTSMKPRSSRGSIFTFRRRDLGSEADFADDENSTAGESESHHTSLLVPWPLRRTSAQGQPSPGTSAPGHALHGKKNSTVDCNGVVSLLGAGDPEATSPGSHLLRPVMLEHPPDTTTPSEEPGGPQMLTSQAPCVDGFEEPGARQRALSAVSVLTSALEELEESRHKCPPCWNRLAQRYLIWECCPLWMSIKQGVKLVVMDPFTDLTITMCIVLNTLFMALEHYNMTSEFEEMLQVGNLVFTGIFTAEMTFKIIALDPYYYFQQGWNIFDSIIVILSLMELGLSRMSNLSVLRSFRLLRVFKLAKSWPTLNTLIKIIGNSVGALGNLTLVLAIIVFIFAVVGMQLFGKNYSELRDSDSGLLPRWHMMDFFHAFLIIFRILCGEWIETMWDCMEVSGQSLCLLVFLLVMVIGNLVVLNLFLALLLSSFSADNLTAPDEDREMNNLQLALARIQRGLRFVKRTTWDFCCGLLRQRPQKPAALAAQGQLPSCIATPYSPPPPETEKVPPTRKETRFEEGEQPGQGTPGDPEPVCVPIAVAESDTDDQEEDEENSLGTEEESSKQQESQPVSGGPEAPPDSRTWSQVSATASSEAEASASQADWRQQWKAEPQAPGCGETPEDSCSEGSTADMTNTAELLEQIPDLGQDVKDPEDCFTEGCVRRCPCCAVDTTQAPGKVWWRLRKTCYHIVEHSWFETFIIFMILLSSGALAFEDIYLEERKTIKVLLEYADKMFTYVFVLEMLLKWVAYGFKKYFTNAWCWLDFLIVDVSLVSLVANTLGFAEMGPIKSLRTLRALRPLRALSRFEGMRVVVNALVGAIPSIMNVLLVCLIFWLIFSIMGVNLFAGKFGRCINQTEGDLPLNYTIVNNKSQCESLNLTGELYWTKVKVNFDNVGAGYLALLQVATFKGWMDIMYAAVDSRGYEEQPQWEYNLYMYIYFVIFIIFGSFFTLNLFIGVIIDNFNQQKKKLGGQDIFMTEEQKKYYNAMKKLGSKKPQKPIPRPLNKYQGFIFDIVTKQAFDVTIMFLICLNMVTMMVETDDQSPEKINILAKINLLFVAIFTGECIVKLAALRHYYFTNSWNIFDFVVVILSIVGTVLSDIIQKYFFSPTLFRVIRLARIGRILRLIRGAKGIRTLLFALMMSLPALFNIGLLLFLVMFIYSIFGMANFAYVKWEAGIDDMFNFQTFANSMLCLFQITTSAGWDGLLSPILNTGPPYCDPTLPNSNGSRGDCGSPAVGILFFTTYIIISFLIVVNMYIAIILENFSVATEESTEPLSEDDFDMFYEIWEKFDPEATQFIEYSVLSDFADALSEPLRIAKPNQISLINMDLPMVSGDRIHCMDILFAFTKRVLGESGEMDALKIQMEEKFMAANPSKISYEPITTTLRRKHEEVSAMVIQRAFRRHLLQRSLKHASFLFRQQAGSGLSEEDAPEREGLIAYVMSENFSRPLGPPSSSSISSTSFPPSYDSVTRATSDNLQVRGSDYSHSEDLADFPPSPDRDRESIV

`CC[C@H](C)[C@@H]1NC(=O)[C@@H]2CSSC[C@@H]3NC(=O)[C@H](C(C)C)NC(=O)[C@H](CC(C)C)NC(=O)[C@H](CC(N)=O)NC(=O)[C@@H]4CCCN4C(=O)[C@H](CCCNC(=N)N)NC(=O)[C@H](CSSC[C@H](NC(=O)[C@@H](N)CC(=O)O)C(=O)N[C@@H](CC(C)C)C(=O)NCC(=O)N[C@@H](C)C(=O)N[C@@H](Cc4ccccc4)C(=O)N[C@@H](CCCNC(=N)N)C(=O)N[C@@H](CCCCN)C(=O)N2)NC(=O)[C@H](CSSC[C@@H](C(=O)N[C@@H](CCCCN)C(=O)N[C@@H](Cc2ccc(O)cc2)C(=O)N[C@H](C(=O)N[C@@H](Cc2ccccc2)C(N)=O)C(C)C)NC(=O)[C@H](Cc2c[nH]c4ccccc24)NC(=O)[C@H](CCC(=O)O)NC(=O)[C@H](Cc2c[nH]cn2)NC(=O)[C@H]([C@@H](C)O)NC(=O)[C@H](CCCNC(=N)N)NC(=O)[C@H](CO)NC3=O)NC(=O)[C@H](CCCCN)NC(=O)[C@H](CC(=O)O)NC(=O)[C@H](CC(N)=O)NC(=O)[C@H](CC(=O)O)NC(=O)[C@@H]2CCCN2C1=O` [compound 729] (H-DCLGAFRKCIPDNDKCCRPNLVCSRTHEWCKYVF-NH2; disulfide 2-17, 9-23, 16-30) gave an IC50 (hNav1.3) of 1800 nM, an IC50 (hNav1.5) of 48000 nM and an IC50 (hNav1.7) of 1100 nM.

Work on `CC[C@H](C)[C@@H]1NC(=O)[C@@H]2CSSC[C@@H]3NC(=O)[C@H](C(C)C)NC(=O)[C@H](CC(C)C)NC(=O)[C@H](CC(N)=O)NC(=O)[C@@H]4CCCN4C(=O)[C@H](CCCNC(=N)N)NC(=O)[C@H](CSSC[C@H](NC(=O)[C@@H](N)CC(=O)O)C(=O)N[C@@H](CC(C)C)C(=O)NCC(=O)N[C@@H](C)C(=O)N[C@@H](CC(C)C)C(=O)N[C@@H](CCCNC(=N)N)C(=O)N[C@@H](CCCCN)C(=O)N2)NC(=O)[C@H](CSSC[C@@H](C(=O)N[C@@H](CCCCN)C(=O)N[C@@H](Cc2ccc(O)cc2)C(=O)N[C@H](C(=O)N[C@@H](Cc2ccccc2)C(N)=O)C(C)C)NC(=O)[C@H](Cc2c[nH]c4ccccc24)NC(=O)[C@H](CCCCN)NC(=O)[C@H](Cc2c[nH]cn2)NC(=O)[C@H]([C@@H](C)O)NC(=O)[C@H](C)NC(=O)[C@H](CO)NC3=O)NC(=O)[C@H](CCCCN)NC(=O)[C@H](CC(=O)O)NC(=O)[C@H](CC(N)=O)NC(=O)[C@H](CC(=O)O)NC(=O)[C@@H]2CCCN2C1=O` [compound 731] yielded an IC50 (hNav1.3) of 2800 nM, an IC50 (hNav1.5) of 38000 nM and an IC50 (hNav1.7) of 600 nM.

In the case of `CC[C@H](C)[C@@H]1NC(=O)[C@@H]2CSSC[C@@H]3NC(=O)[C@H](C(C)C)NC(=O)[C@H](CC(C)C)NC(=O)[C@H](CC(N)=O)NC(=O)[C@@H]4CCCN4C(=O)[C@H](CCCNC(=N)N)NC(=O)[C@H](CSSC[C@H](NC(=O)[C@@H](N)CC(=O)O)C(=O)N[C@@H](CC(C)C)C(=O)NCC(=O)N[C@@H](C)C(=O)N[C@@H](Cc4ccccc4)C(=O)N[C@@H](CCCNC(=N)N)C(=O)N[C@@H](CCCCN)C(=O)N2)NC(=O)[C@H](CSSC[C@@H](C(=O)N[C@@H](CCCCN)C(=O)N[C@@H](Cc2ccc(O)cc2)C(=O)N[C@H](C(=O)N[C@@H](Cc2ccccc2)C(N)=O)C(C)C)NC(=O)[C@H](Cc2c[nH]c4ccccc24)NC(=O)[C@H](CCCCN)NC(=O)[C@H](Cc2c[nH]cn2)NC(=O)[C@H]([C@@H](C)O)NC(=O)[C@H](C)NC(=O)[C@H](CO)NC3=O)NC(=O)[C@H](CCCCN)NC(=O)[C@H](CC(=O)O)NC(=O)[C@H](CC(N)=O)NC(=O)[C@H](CC(=O)O)NC(=O)[C@@H]2CCCN2C1=O` [compound 732] (H-DCLGAFRKCIPDNDKCCRPNLVCSATHKWCKYVF-NH2; disulfide 2-17, 9-23, 16-30), the IC50 (hNav1.3) is reported as 600 nM, the IC50 (hNav1.5) is reported as > 50000 nM and the IC50 (hNav1.7) is reported as 290 nM.

For `CC[C@H](C)[C@@H]1NC(=O)[C@@H]2CSSC[C@@H]3NC(=O)[C@H](C(C)C)NC(=O)[C@H](CC(C)C)NC(=O)[C@H](CC(N)=O)NC(=O)[C@@H]4CCCN4C(=O)[C@H](CCCNC(=N)N)NC(=O)[C@H](CSSC[C@H](NC(=O)[C@@H](N)CC(=O)O)C(=O)N[C@@H](CC(C)C)C(=O)NCC(=O)N[C@@H](C)C(=O)N[C@@H](CC(C)C)C(=O)N[C@@H](CCCNC(=N)N)C(=O)N[C@@H](CCCCN)C(=O)N2)NC(=O)[C@H](CSSC[C@@H](C(=O)N[C@@H](CCCCN)C(=O)N[C@@H](Cc2ccc(O)cc2)C(=O)N[C@H](C(=O)N[C@@H](Cc2ccccc2)C(N)=O)C(C)C)NC(=O)[C@H](Cc2c[nH]c4ccccc24)NC(=O)[C@H](CCCCN)NC(=O)[C@H](Cc2c[nH]cn2)NC(=O)[C@H]([C@@H](C)O)NC(=O)[C@H](CCC(=O)O)NC(=O)[C@H](CO)NC3=O)NC(=O)[C@H](CCCCN)NC(=O)[C@H](CC(=O)O)NC(=O)[C@H](CC(N)=O)NC(=O)[C@H](CC(=O)O)NC(=O)[C@@H]2CCCN2C1=O` [compound 734], the IC50 (hNav1.3) was 9300 nM, the IC50 (hNav1.5) was 41000 nM and the IC50 (hNav1.7) was 1800 nM.

With `CC[C@H](C)[C@@H]1NC(=O)[C@@H]2CSSC[C@@H]3NC(=O)[C@H](C(C)C)NC(=O)[C@H](CC(C)C)NC(=O)[C@H](CC(N)=O)NC(=O)[C@@H]4CCCN4C(=O)[C@H](CCCNC(=N)N)NC(=O)[C@H](CSSC[C@H](NC(=O)[C@@H](N)CC(=O)O)C(=O)N[C@@H](CC(C)C)C(=O)NCC(=O)N[C@@H](C)C(=O)N[C@@H](Cc4ccccc4)C(=O)N[C@@H](CCCNC(=N)N)C(=O)N[C@@H](CCCCN)C(=O)N2)NC(=O)[C@H](CSSC[C@@H](C(=O)N[C@@H](CCCCN)C(=O)N[C@@H](Cc2ccc(O)cc2)C(=O)N[C@H](C(=O)N[C@@H](Cc2ccccc2)C(N)=O)C(C)C)NC(=O)[C@H](Cc2c[nH]c4ccccc24)NC(=O)[C@H](CCCCN)NC(=O)[C@H](Cc2c[nH]cn2)NC(=O)[C@H]([C@@H](C)O)NC(=O)[C@H](CCC(=O)O)NC(=O)[C@H](CO)NC3=O)NC(=O)[C@H](CCCCN)NC(=O)[C@H](CC(=O)O)NC(=O)[C@H](CC(N)=O)NC(=O)[C@H](CC(=O)O)NC(=O)[C@@H]2CCCN2C1=O` [compound 735] (H-DCLGAFRKCIPDNDKCCRPNLVCSETHKWCKYVF-NH2; disulfide 2-17, 9-23, 16-30) the IC50 (hNav1.3) was 3600 nM, the IC50 (hNav1.5) was 41000 nM and the IC50 (hNav1.7) was 1500 nM.

`C#CC[C@@H]1NC(=O)[C@H](CC(=O)O)NC(=O)[C@H](CC(N)=O)NC(=O)[C@H](CC(=O)O)NC(=O)[C@@H]2CCCN2C(=O)[C@H]([C@@H](C)CC)NC(=O)[C@@H]2CSSC[C@@H]3NC(=O)[C@H](C(C)C)NC(=O)[C@H](CC(C)C)NC(=O)[C@H](CC(N)=O)NC(=O)[C@@H]4CCCN4C(=O)[C@H](CCCNC(=N)N)NC(=O)[C@H](CSSC[C@H](NC(=O)[C@@H](N)CC(=O)O)C(=O)N[C@@H](CC(C)C)C(=O)NCC(=O)N[C@@H](Cc4ccccc4)C(=O)N[C@@H](Cc4ccccc4)C(=O)N[C@@H](CCCNC(=N)N)C(=O)N[C@@H](CCCCN)C(=O)N2)NC(=O)[C@H](CSSC[C@@H](C(=O)N[C@@H](CCCCN)C(=O)N[C@@H](Cc2ccc(O)cc2)C(=O)N[C@H](C(=O)N[C@@H](Cc2ccccc2)C(N)=O)C(C)C)NC(=O)[C@H](Cc2c[nH]c4ccccc24)NC(=O)[C@H](CCCCN)NC(=O)[C@H](Cc2c[nH]cn2)NC(=O)[C@H]([C@@H](C)O)NC(=O)[C@H](CCCNC(=N)N)NC(=O)[C@H](CO)NC3=O)NC1=O` [compound 736] (H-DCLGFFRKCIPDND[Pra]CCRPNLVCSRTHKWCKYVF-NH2; disulfide 2-17, 9-23, 16-30) was tested, and the IC50 (hNav1.3) was > 5000 nM, the IC50 (hNav1.5) was 32600 nM and the IC50 (hNav1.7) was > 5000 nM.

`CC[C@H](C)[C@@H]1NC(=O)[C@@H]2CSSC[C@@H]3NC(=O)[C@H](C(C)C)NC(=O)[C@H](CC(C)C)NC(=O)[C@H](CC(N)=O)NC(=O)[C@@H]4CCCN4C(=O)[C@H](CCCNC(=N)N)NC(=O)[C@H](CSSC[C@H](NC(=O)[C@@H](N)CC(=O)O)C(=O)N[C@@H](CC(C)C)C(=O)NCC(=O)N[C@@H](C)C(=O)N[C@@H](CCSC)C(=O)N[C@@H](CCCNC(=N)N)C(=O)N[C@@H](CCCCN)C(=O)N2)NC(=O)[C@H](CSSC[C@@H](C(=O)N[C@@H](CCCCN)C(=O)N[C@@H](Cc2ccc(O)cc2)C(=O)N[C@H](C(=O)N[C@@H](Cc2ccccc2)C(N)=O)C(C)C)NC(=O)[C@H](Cc2c[nH]c4ccccc24)NC(=O)[C@H](Cc2c[nH]cn2)NC(=O)[C@H](Cc2c[nH]cn2)NC(=O)[C@H]([C@@H](C)O)NC(=O)[C@H](CCCNC(=N)N)NC(=O)[C@H](CO)NC3=O)NC(=O)[C@H](CCCCN)NC(=O)[C@H](CC(=O)O)NC(=O)[C@H](CC(N)=O)NC(=O)[C@H](CC(=O)O)NC(=O)[C@@H]2CCCN2C1=O` [compound 737] (H-DCLGAMRKCIPDNDKCCRPNLVCSRTHHWCKYVF-NH2; disulfide 2-17, 9-23, 16-30) gave an IC50 (hNav1.3) of 1600 nM, an IC50 (hNav1.5) of 19200 nM and an IC50 (hNav1.7) of 400 nM.

`CC[C@H](C)[C@@H]1NC(=O)[C@@H]2CSSC[C@@H]3NC(=O)[C@H](C(C)C)NC(=O)[C@H](CC(C)C)NC(=O)[C@H](CC(N)=O)NC(=O)[C@@H]4CCCN4C(=O)[C@H](CCCNC(=N)N)NC(=O)[C@H](CSSC[C@H](NC(=O)[C@@H](N)CC(=O)O)C(=O)N[C@@H](CC(C)C)C(=O)NCC(=O)N[C@@H](C)C(=O)N[C@@H](CCSC)C(=O)N[C@@H](CCCNC(=N)N)C(=O)N[C@@H](CCCCN)C(=O)N2)NC(=O)[C@H](CSSC[C@@H](C(=O)N[C@@H](CCCCN)C(=O)N[C@@H](Cc2ccc(O)cc2)C(=O)N[C@H](C(=O)N[C@@H](Cc2ccccc2)C(N)=O)C(C)C)NC(=O)[C@H](Cc2c[nH]c4ccccc24)NC(=O)[C@H](CO)NC(=O)[C@H](Cc2c[nH]cn2)NC(=O)[C@H]([C@@H](C)O)NC(=O)[C@H](CCCNC(=N)N)NC(=O)[C@H](CO)NC3=O)NC(=O)[C@H](CCCCN)NC(=O)[C@H](CC(=O)O)NC(=O)[C@H](CC(N)=O)NC(=O)[C@H](CC(=O)O)NC(=O)[C@@H]2CCCN2C1=O` [compound 738] (H-DCLGAMRKCIPDNDKCCRPNLVCSRTHSWCKYVF-NH2; disulfide 2-17, 9-23, 16-30) was tested, and the IC50 (hNav1.3) was 1800 nM, the IC50 (hNav1.5) was 21900 nM and the IC50 (hNav1.7) was 650 nM.
